Patent US9340774B2, “Tumor-initiating cells and methods for using same” (Wyeth LLC, priority 2009, dated 2016)

Legend:
60274 xenografts = experiment: Tumor regression of NSCLC primary implant xenografts, line 60274; format: in vivo, mice; details: maximum tolerable dose
Experimental: Nude (for 37622) or nod-scid (for 60274) mice were injected subcutaneously between the shoulder blades with fragments of low-passage primary implants. When the tumors reached the mass of 0.2 to 0.5 g, the tumors were staged to ensure uniformity of the tumor mass between various treatment groups prior to the administration of therapy. Anti-5T4 huH8 antibody and anti-CD33 p67.6 antibody were conjugated to calicheamicin via an amide linker as described (Hamann et al., Bioconug. Chem., 2002, 13: 40-46). The “amide” linker restricts the release of calicheamicin to cells that internalize the antibody-drug conjugate (Hamann et al., Bioconug. Chem., 2002, 13: 40-46). […] Tumors were measured at least once a week and their mass was as volume=0.5×(tumor width^2)(tumor length). Mean tumor volume (±SEM) for each treatment group was calculated and compared to the vehicle-treated group for statistical significance using a one-sided t-test, with the error term for the t-test based on the pooled variance across all treatment groups. Tumor values for each treatment group were recorded up to 120 days after the initiation of treatment or until either tumor-bearing mice died or the tumors grew to 15% of the body weight at which time these mice were euthanized according to institutional regulations.

5T4 = experiment: Anti-5T4 immunoblot of sorted cells treated with all-trans retinoic acid; format: cell-based, human; details: CD24−/lowCD44+ cells; 10 μM; 72 hours; 0.5% FBS medium; FIG. 6B
Experimental: To determine 5T4 expression under conditions of growth and differentiation, cells were harvested at several time points, and protein extracts were subjected to immunoblot analysis. Cells were washed with PBS and lysed in 0.5% v/v NP40 in 25 mM Tris-buffered saline pH 7.4 (TBS). After protein estimation (MICROBCA™ Protein Assay Kit, Pierce of Rockford, Ill., USA), the lysates were mixed with non-reducing Laemmli sample buffer (Biorad of Hercules, Calif., USA) and 10 μg samples were loaded in each well of a non-reducing 4-20% polyacrylamide gradient gel (NOVEX®, available from Invitrogen of Carlsbad, Calif., USA). The samples were run for two to three hours at 125 volts and transferred to a PVDF (polyvinylidene fluoride) membrane by means of a Novex® electrophoresis transfer system. The membrane was blocked overnight with 5% milk in Tris-buffered saline Tween-20 (TBST) with 1% goat serum, probed with anti-5T4 antibody H8 at 1 μg/ml in 5% milk in TBST, washed and probed with HRP conjugated goat anti-mulgG at 1:5,000 dilution. The ECL detection system was used (Amersham of Burlington, Mass., USA).
To further assess 5T4 expression in tumor cell lines, sorted cells were treated with all-trans retinoic acid to induce differentiation and then subjected to immunoblot analysis. […]

[1] = test system: H460T CD24−/lowCD44+ and CD24highCD44+ cells; experiment: Differential drug response of sorted H460T populations; format: cell-based, human
Excerpt: H460 cells were obtained from the American Type Culture Collection (ATCC) in Manassas, Va., United States of America. The H460 cell line was derived from the pleural fluid of a patient with large cell cancer of the lung (Gazdar et al., Science, 1989, 246: 491494). HCC2429 cells were obtained from J. Minna. See Haruki et al., J. Med. Genet., 2005, 42(7):558-64. […] Higher-passage cells are referred to as H460T to distinguish them from the low-passage H460 that were originally obtained from ATCC. All cells were incubated at 37° Celsius with 5.0% carbon dioxide (CO2). H460T cells were cultured in RPMI-1640 (GIBCO®, available from Invitrogen of Carlsbad, Calif., USA). See Moore et al., JAMA, 1967, 199: 519-524, 10% fetal bovine serum (FBS, GIBCO®, available from Invitrogen of Carlsbad, Calif., USA), 2 mM additional glutamine, 100 IU/mipenicillin, 100 μg/ml streptomycin, 1 mM sodium pyruvate, 0.1% sodium bicarbonate, 045% additional glucose, and 10 mM 4-(2-hydroxyethyl)-1-piperazineethanesulfonic acid (HEPES). HCC2429 cells were cultured in RPMI-1640, 10% FBS, 2 mM additional glutamine, 100 IU/ml penicillin, 100 μg/ml streptomycin. Karyotyping and short tandem repeat (STR) analysis of H460T confirmed its H460 origin, however the Y chromosome was absent in H460T cells and present in most H460 cells. […]

[2] = test system: H460T CD24−/lowCD44+ and CD24highCD44+ cells; experiment: Colony formation (clonogenic) assay on sorted cells; format: cell-based, human; details: 72 hours drug exposure, 200 cells replated, colonies after 8 days; FIG. 10B
Experimental: To perform a colony formation assay, cells were seeded in 24 well plate at a density of 5,000 cells per well. Twenty-four hours after seeding the cells were exposed to various concentrations of (0.000097, 0.000390, 0.00156, 0.00625, 0.025, 0.1, 0.4 ng calicheamicin equivalents/ml) of anti-5T4 H8-AcBut conjugate, anti-CD22 AcBut conjugate, or calicheamicin alone. Seventy-two hours after the drug exposure, cells were trypsinized, counted and 200 cells were plated in 6 well plates. After 8 days, the colonies were fixed and stained with methylene blue. The number of colonies per well was counted using a Stereoscope.

[3] = test system: H460T CD24−/lowCD44+ and CD24highCD44+ cells; experiment: Four-day MTS cell viability assay on sorted cells; format: cell-based, human; details: 96 hours of drug exposure, FIG. 10A
Experimental: The CD24^−/lowCD44^+ population was more sensitive to an anti-5T4 antibody-drug conjugate than the CD24^highCD44^+ population in an cell viability assay and a colony growth assay. For each assay, antibody-calicheamicin AcBut-linked (AcBut-AcBut-[4-(4-acetylphenoxy) butanoic acid]) conjugates were prepared as described (Hamann et al., Bioconjug. Chem., 2002, 13: 47-58). The effect of anti-5T4 huH8 antibody-drug conjugate or anti-CD22 antibody-drug conjugate on sorted cells was assessed using a cellular viability indicator ((3-(4,5-dimethylthiazol-2-yl)-5([…])-2-(4-sulfophenyl)-2H-tetrazolium (MTS) (Promega of Madison, Wis., USA) to determine the number of surviving cells following exposure to the drug treatment. Cells were sorted 18 hours prior to start of assay. Cells were seeded in 96-well microtiter plates at a density of 10000 cells per well and exposed to various concentrations of the drug. Following determination of the number of viable cells surviving 96 hours of drug exposure, the IC50 of each treatment was calculated based on the logistic regression parameters derived from the dose-response curves. IC50 values were calculated by logistic non-linear regression and are reported as the calicheamicin dimethyl hydrazide (CalichDMH) concentration from each treatment group that causes 50% loss of cell viability.

N.N.[Cl][Pt][Cl] [cisplatin]
tumor size of 60274 xenografts (60274 xenografts; FIG. 12C): reduced tumor size transiently | regrowth of 60274 tumors (60274 xenografts; after completion of the dosing regimen): quickly regrew

CC1=C(/C=C/C(C)=C/C=C/C(C)=C/C(=O)O)C(C)(C)CCC1 [all-trans retinoic acid]
5T4 expression (immunoblot) (5T4): dramatically reduced

O=c1[nH]cc(F)c(=O)[nH]1 [5-fluoruracil]
response of CD24−/lowCD44+ versus CD24highCD44+ populations [1]: responded equally

calicheamicin
sensitivity of CD24−/lowCD44+ cells versus CD24highCD44+ cells (number of colonies) [2]: No difference between the two populations | sensitivity of CD24−/lowCD44+ cells versus CD24highCD44+ cells (IC50 as CalichDMH concentration) [3]: No difference between the two populations

CC[C@@]1(O)C(=O)OCc2c1cc1n(c2=O)Cc2cc3ccccc3nc2-1 [camptothecin]
response of CD24−/lowCD44+ versus CD24highCD44+ populations [1]: responded equally
